The source of these data is the supplement of paper PMC11208160.
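Further: IS621 bridge recombinase in Escherichia coli cells against a fixed T5 target plasmid.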

The series in a line: recombinant UMI read abundance after kanamycin selection (control-corrected) (log10(CPM+1)); higher = more efficient recombination; extreme values may be limits of the assay; sequences stand for … in AGTGCAGAGAAAATCGGCCAGTTTTCTCTGCCTGCAGTCCGCATGCCGTGGGACCCCTTGGGTTCTAACCTGTTGCCTAGATTTATGCAGCGGACTGCCTTTCTCCCAAAGTGATAAACCGG…AGGTTGGTTTCACT; site = the 11-nt donor. The protocol:
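Pooled E. coli donor-specificity screen for the IS621 bridge recombinase. Each library member carries a reprogrammed 11-nt donor and a full-length LE bridge RNA expressed in cis from the natural promoter, with a paired donor-binding loop (8-nt LDG + 4-nt RDG) and a target-binding loop fixed to T5. It is co-electroporated with a T5 target plasmid; recombinase is induced with 0.07 mM IPTG and recombinants are selected on kanamycin. UMIs are counted as CPM, averaged over two biological replicates and corrected by the unselected control. Molecule = full bridge RNA written as DNA, built from the T5 scaffold: LDG = donor specificity nt 1-8, RDG = reverse complement of nt 8-11.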
Take “ACACCTCCATGGACCGGTTTTCCCGGTAATCCGTATTTGAC (site ACACGTCCTGT)”: the “recombinant UMI read abundance (log10)” value came to 0. As to “ACACCTCCATGGACCGGTTTTCCCGGTAATCCGTATTTGAC (site ACACTTCCTGT)”, the “recombinant UMI read abundance (log10)” value was 0. The same measure for “ACACGAACATGGACCGGTTTTCCCGGTAATCCGTATTTGAC (site ACACGAACTGA)”: 1.64; for “ACACGAACATGGACCGGTTTTCCCGGTAATCCGTATTTGAC (site ACACGAACTGC)”: 0; for “ACACGAACATGGACCGGTTTTCCCGGTAATCCGTATTTGAC (site ACACGAACTGG)”: 1.33.

On to “ACACGAACATGGACCGGTTTTCCCGGTAATCCGTATTTGAC (site ACACGAACTGT)”, for which the “recombinant UMI read abundance (log10)” value is 2.62. The same measure for “ACACGAACATGGACCGGTTTTCCCGGTAATCCGTATTTGTG (site ACACGAACTAA)”: 0.269.

Regarding “ACACGAACATGGACCGGTTTTCCCGGTAATCCGTATTTGTG (site ACACGAACTCA)”, the “recombinant UMI read abundance (log10)” value was 1.91. For the sequence “ACACGAACATGGACCGGTTTTCCCGGTAATCCGTATTTGTG (site ACACGAACTGA)”, the “recombinant UMI read abundance (log10)” value came to 0. The same measure for “ACACGAACATGGACCGGTTTTCCCGGTAATCCGTATTTGTG (site ACACGAACTTA)”: 0.766.

Take “ACACGACCATGGACCGGTTTTCCCGGTAATCCGTATTTGTC (site ACACGAACTGA)”: the “recombinant UMI read abundance (log10)” value is 0.0114. The same measure for “ACACGACCATGGACCGGTTTTCCCGGTAATCCGTATTTGTC (site ACACGACCTGA)”: 0; for “ACACGACCATGGACCGGTTTTCCCGGTAATCCGTATTTGTC (site ACACGAGCTGA)”: 0; for “ACACGACCATGGACCGGTTTTCCCGGTAATCCGTATTTGTC (site ACACGATCTGA)”: 1.22. On to “ACACGCACATGGACCGGTTTTCCCGGTAATCCGTATTTGTC (site ACACGAACTGA)”, for which the “recombinant UMI read abundance (log10)” value turned out to be 1.62. Regarding “ACACGCACATGGACCGGTTTTCCCGGTAATCCGTATTTGTC (site ACACGCACTGA)”, the “recombinant UMI read abundance (log10)” value worked out at 2.85.

As for “ACACGCACATGGACCGGTTTTCCCGGTAATCCGTATTTGTC (site ACACGGACTGA)”, the “recombinant UMI read abundance (log10)” value came to 0. In the case of “ACACGCACATGGACCGGTTTTCCCGGTAATCCGTATTTGTC (site ACACGTACTGA)” it was 0.934; in that of “ACACGGACATGGACCGGTTTTCCCGGTAATCCGTATTTGTC (site ACACGAACTGA)”, 0; in that of “ACACGGACATGGACCGGTTTTCCCGGTAATCCGTATTTGTC (site ACACGCACTGA)”, 0. In the case of “ACACGGACATGGACCGGTTTTCCCGGTAATCCGTATTTGTC (site ACACGGACTGA)” it was 0.491. In the case of “ACACGGACATGGACCGGTTTTCCCGGTAATCCGTATTTGTC (site ACACGTACTGA)” it was 0. Consider “ACACGTCCATGGACCGGTTTTCCCGGTAATCCGTATTTGAT (site ACACGTCCTAT)”, for which the “recombinant UMI read abundance (log10)” value came to 1.56. In the case of “ACACTAGCATGGACCGGTTTTCCCGGTAATCCGTATTTGTG (site ACACTAGCTCA)” it was 1.62; in that of “ACACTATCATGGACCGGTTTTCCCGGTAATCCGTATTTGCA (site ACAATATCTTG)”, 2.11; in that of “ACACTATCATGGACCGGTTTTCCCGGTAATCCGTATTTGCA (site ACACTATCTTG)”, 2.85.

As for “ACACTATCATGGACCGGTTTTCCCGGTAATCCGTATTTGCA (site ACAGTATCTTG)”, the “recombinant UMI read abundance (log10)” value worked out at 1.89.

On to “ACACTATCATGGACCGGTTTTCCCGGTAATCCGTATTTGCA (site ACATTATCTTG)”, for which the “recombinant UMI read abundance (log10)” value was 2.21. In the case of “ACAGAAACATGGACCGGTTTTCCCGGTAATCCGTATTTGCA (site ACAGAAACTTG)” it was 2.78; in that of “ACAGAAACATGGACCGGTTTTCCCGGTAATCCGTATTTGCA (site ACAGTATCTTG)”, 0. The same measure for “ACAGCAGCATGGACCGGTTTTCCCGGTAATCCGTATTTGCA (site ACAGCAGCTTG)”: 2.49; for “ACAGCAGCATGGACCGGTTTTCCCGGTAATCCGTATTTGCA (site ACAGTATCTTG)”: 0. The same measure for “ACAGCGTCATGGACCGGTTTTCCCGGTAATCCGTATTTGAC (site ACAGCGTCTGT)”: 3.29.

On to “ACAGCTACATGGACCGGTTTTCCCGGTAATCCGTATTTGTG (site ACAACTACTCA)”, for which the “recombinant UMI read abundance (log10)” value worked out at 0.815.

On to “ACAGCTACATGGACCGGTTTTCCCGGTAATCCGTATTTGTG (site ACACCTACTCA)”, for which the “recombinant UMI read abundance (log10)” value came to 0.156. The same measure for “ACAGCTACATGGACCGGTTTTCCCGGTAATCCGTATTTGTG (site ACAGCTACTCA)”: 1.44. “ACAGCTACATGGACCGGTTTTCCCGGTAATCCGTATTTGTG (site ACATCTACTCA)”: the “recombinant UMI read abundance (log10)” value stood at 0.0498.

Take “ACAGGAACATGGACCGGTTTTCCCGGTAATCCGTATTTGTC (site ACAAGAACTGA)”: the “recombinant UMI read abundance (log10)” value worked out at 1.18. In the case of “ACAGGAACATGGACCGGTTTTCCCGGTAATCCGTATTTGTC (site ACACGAACTGA)” it was 0.428; in that of “ACAGGAACATGGACCGGTTTTCCCGGTAATCCGTATTTGTC (site ACAGGAACTGA)”, 2.43; in that of “ACAGGAACATGGACCGGTTTTCCCGGTAATCCGTATTTGTC (site ACATGAACTGA)”, 0.289. Turning to “ACAGGACCATGGACCGGTTTTCCCGGTAATCCGTATTTGGA (site ACAGGACCTTC)”, the “recombinant UMI read abundance (log10)” value came to 0.00625. Turning to “ACAGGATCATGGACCGGTTTTCCCGGTAATCCGTATTTGCC (site ACAGGATCTGG)”, the “recombinant UMI read abundance (log10)” value is 2.27. For “ACAGGATCATGGACCGGTTTTCCCGGTAATCCGTATTTGCC (site ACAGTATCTTG)”, the “recombinant UMI read abundance (log10)” value is 0.

On to “ACAGGGTCATGGACCGGTTTTCCCGGTAATCCGTATTTGCA (site ACAGGGTCTTG)”, for which the “recombinant UMI read abundance (log10)” value was 3.2. The same measure for “ACAGGGTCATGGACCGGTTTTCCCGGTAATCCGTATTTGCA (site ACAGTATCTTG)”: 1.89.

As to “ACAGTACCATGGACCGGTTTTCCCGGTAATCCGTATTTGCC (site ACAGTACCTGG)”, the “recombinant UMI read abundance (log10)” value came to 0. The same measure for “ACAGTACCATGGACCGGTTTTCCCGGTAATCCGTATTTGCC (site ACAGTATCTTG)”: 0.966; for “ACAGTAGCATGGACCGGTTTTCCCGGTAATCCGTATTTGTA (site ACAGTAGCTTA)”: 2.87. The same measure for “ACAGTAGCATGGACCGGTTTTCCCGGTAATCCGTATTTGTA (site ACAGTATCTTG)”: 1.49; for “ACAGTATCATGGACCGGTTTTCCCGGTAATCCGTATTTGCG (site ACAGTATCTAG)”: 2.18. The same measure for “ACAGTATCATGGACCGGTTTTCCCGGTAATCCGTATTTGCG (site ACAGTATCTCG)”: 3.51.
